# Results published in patent US10363314B2, “Sprayable topical carrier and composition comprising phosphatidylcholine” (LIPIDOR AB, priority 2013, dated 2019).
# System: human skin
# Assay: Erythema occurrence upon treating skin with carriers under occlusion for 12 days, first study
# Type: in vivo
# Details: 33 healthy volunteers, occlusive conditions, applied 5 days per week, scored after 12 days, index 0-4
# Procedure: The effect of prior art pharmaceutical compositions and of carriers and compositions of the invention on human skin was observed by visual inspection or by determining erythema index by using DermaLab Combo and DSM II Colormeter (Cortex Technology, Denmark).
# Erythema occurrence was assessed in two human studies. In the first study the skin irritation potential of different lipid carriers was evaluated. Thirty-three healthy volunteers received the test formulations and a positive and negative control under occlusive conditions. The test articles were applied 5 days per week and the irritation grade was scored after 12 days according to a four-level assessment index (0=No reaction; 1=Slight diffuse, partial erythema; 2=Clear, sharply demarcated erythema; 3=Severe erythema with induration; 4=Severe erythema with induration and/or epidermal defect).
compound,measurement,value
"CCCCCCCCCCCCOS(=O)(=O)[O-].[Na+] [Pos. control, Sodium dodecylsulfate]",Mean erythema assessment index,3.0
